Reference: PubChem BioAssay (NCI)
Where “and” joins values, the source holds several entries; their conditions need not be identical. Equal values may be shown once.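 Compound exposure: 48 hours, 5 concentrations, 96-well plates. GI50 = concentration required for 50% inhibition of growth. TGI marks complete inhibition of growth.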

Tests used:
Assay in all cases: NCI anticancer screen, dose series, 48 h
[1] = tested on: BT-549 breast
[2] = tested on: HL-60(TB) leukemia
[3] = tested on: HS 578T breast
[4] = tested on: NCI-H460 lung
[5] = tested on: NCI-H522 lung
[6] = tested on: OVCAR-5 ovarian
[7] = tested on: OVCAR-8 ovarian
[8] = tested on: PC-3 prostate
[9] = tested on: RXF 393 renal
[10] = tested on: SK-MEL-28 melanoma

Row | Structure (SMILES) | GI50 [1] | TGI [1] | GI50 [2] | TGI [2] | GI50 [3] | TGI [3] | GI50 [4] | TGI [4] | GI50 [5] | TGI [5] | GI50 [6] | TGI [6] | GI50 [7] | TGI [7] | GI50 [8] | TGI [8] | GI50 [9] | TGI [9] | GI50 [10] | TGI [10]
1 | Cn1c2c(c3ccccc31)CCN1C[C@@H]3CCCC[C@H]3C[C@@H]21 | 3.04 µM | 9.19 µM | 2.27 µM | > 28.4 µM | 4.51 µM | > 100 µM | 3.34 µM | > 36.1 µM | 1.74 µM | 4.44 µM | 3.82 µM | > 100 µM | 2.84 µM | > 30.2 µM | 3.31 µM | > 100 µM | 0.964 µM | 7.47 µM | 6.03 µM | > 100 µM
2 | CCOc1cc(Cl)c(C(C)NC(=O)c2cccc(OC)c2)cc1OCC (stereo not drawn) | 13.4 µM | > 100 µM | 3.96 µM | > 100 µM | 11.8 µM | > 100 µM | 4.79 µM | > 54.8 µM | 5.04 µM | 39.7 µM | > 52.7 µM | > 100 µM | 25.7 µM | > 100 µM | 15.1 µM | > 100 µM | 9.21 µM | 63 µM | 16.5 µM | > 100 µM
3 | CN1C(=O)C(N=Nc2ccc([N+](=O)[O-])cc2)SC1=S (stereo not drawn) | 4.45 µM and 6.28 µM | 42.8 µM and 40.6 µM | 0.678 µM and 2.84 µM | 8.68 µM and 8.38 µM | 2.47 µM and 16.2 µM | 22.5 µM and > 100 µM | 2.98 µM and 5.43 µM | 24.9 µM and > 100 µM | 4.52 µM and 3 µM | 52.5 µM and 47.9 µM | 10.6 µM and 15.4 µM | > 100 µM and 99.6 µM | 4.38 µM and 11 µM | > 100 µM | 1.6 µM and 4.65 µM | > 100 µM | 16.6 µM and 12.5 µM | 97.4 µM and 77.5 µM | 11.6 µM and 27.2 µM | > 100 µM
4 | Cn1cc(-c2csc(-c3ccccc3)n2)c2cccnc21 | 17.1 µM | 45.8 µM | 9.4 µM | 34 µM | 11.8 µM | 35.5 µM | 16 µM | 31 µM | 14.1 µM | 33.3 µM | 14 µM | 32.7 µM | 20.3 µM | 52.4 µM | 14.4 µM | 39.1 µM | 14.6 µM | 33.2 µM | 15.7 µM | 31.5 µM
5 | CC[C@]12C=CCN3CC[C@@]4(c5ccc(OC)cc5N(C)[C@H]4[C@@](O)(C(=O)OC)[C@@H]1OC(=O)CCC(=O)O[C@H]1CC[C@H]4[C@@H]5CCC6=CC(=O)CC[C@@H]6[C@H]5CC[C@]14C)[C@@H]32 | 1.62 µM | 9.38 µM | 1.07 µM | 2.57 µM | 2.38 µM | > 50 µM | 3.01 µM | > 50 µM | 1.8 µM | > 50 µM | 1.9 µM | > 50 µM | 2.24 µM | > 50 µM | 0.996 µM | > 50 µM | 1.33 µM | 4.21 µM | 2.17 µM | > 50 µM
6 | Cc1cc(S(=O)(=O)Nc2nc3ccccc3c(=O)n2Cc2ccco2)c(S)cc1Cl | 15.7 µM | 51.9 µM | 74.3 µM | > 100 µM | 30.5 µM | > 100 µM | 33.3 µM | > 100 µM | 37.4 µM | > 100 µM | 60.4 µM | > 100 µM | 57.7 µM | > 100 µM | 36.9 µM | > 100 µM | 61.7 µM | > 100 µM | 34.8 µM | > 100 µM
7 | Cc1c(O)cccc1C(=O)N[C@@H](CSc1ccccc1)[C@H](O)CN1C[C@H]2CCCC[C@H]2C[C@H]1C(=O)NC(C)(C)C | 4.97 µM and 3.88 µM | 21.1 µM and 17.1 µM | 2.95 µM and 3.43 µM | > 26 µM and 13.6 µM | 4.82 µM and 4.87 µM | > 58 µM and 20.3 µM | 3.48 µM and 4.79 µM | 13.8 µM and 11.4 µM | 3.06 µM and 2.94 µM | 11.7 µM and 13.4 µM | 8.95 µM and 6.31 µM | 31.6 µM and 19 µM | 6.56 µM and 7.87 µM | 35.2 µM and 39.6 µM | 2.95 µM and 3.94 µM | 11.1 µM and > 35.1 µM | 1.96 µM and 2.91 µM | 4.26 µM and 6.37 µM | 5.68 µM and 7.33 µM | 19.3 µM and 22.2 µM
8 | COc1ccc(C2=C(c3ccccc3)C(=O)N3CCCC3C2)cc1 (stereo not drawn) | 32.5 µM | > 100 µM | 0.493 µM | > 63.6 µM | > 100 µM | > 100 µM | – | > 62.9 µM | 0.821 µM | > 100 µM | > 100 µM | > 100 µM | 9.42 µM | > 100 µM | 1.48 µM | > 100 µM | 25.5 µM | > 100 µM | > 62.5 µM | > 100 µM
9 | CC(=O)Oc1ccc(C2OC(c3ccc4ccccc4c3OC(C)=O)=NN2C(C)=O)c(OC(C)=O)c1 (stereo not drawn) | 0.841 µM | 76.3 µM | 0.267 µM | 4.82 µM | 12 µM | > 100 µM | 0.346 µM | > 36 µM | 0.369 µM | 6.22 µM | 2.22 µM | > 100 µM | 0.363 µM | > 100 µM | 0.448 µM | > 59.6 µM | 0.432 µM | 16.3 µM | 0.559 µM | > 53.9 µM
10 | CCN1CCN(Cc2ccc(Nc3ncc(F)c(-c4cc(F)c5nc(C)n(C(C)C)c5c4)n3)nc2)CC1 | 6.54 µM | 13.7 µM | 2.82 µM | 13.2 µM | 0.745 µM | 15.3 µM | 0.959 µM | 12.7 µM | 8.92 µM | 18.1 µM | 8.53 µM | 50 µM | 9.58 µM | 26.2 µM | 0.0527 µM | 11.1 µM | 0.389 µM | 8.34 µM | 6.03 µM | 12.9 µM
11 | CC(C)(C)N1CC1CNC(=O)C(=O)NCC1CN1C(C)(C)C (stereo not drawn) | – | > 92.6 µM | – | 4.57 µM | – | > 100 µM | – | 24.7 µM | – | 2.15 µM | – | 7.56 µM | – | 14.8 µM | – | > 100 µM | – | 5.22 µM | – | 11.1 µM
12 | Nc1c(C(=O)Nc2cccc(Cl)c2)sc2nc3c(cc12)C(O)CCC3 (stereo not drawn) | 3.14 µM | 38.5 µM | 0.234 µM | 0.821 µM | 1.62 µM | > 74 µM | 0.388 µM | 16.8 µM | 0.434 µM | 23.6 µM | 2.89 µM | 33.9 µM | 0.714 µM | 22.9 µM | 0.416 µM | 25.2 µM | 0.396 µM | 2.87 µM | 3.02 µM | 59 µM
13 | CC(C)n1cc(-c2ccc3c(c2)N(C)CC3)c2c(NS(=O)(=O)c3ccn(C)n3)ccnc21 | 25.3 µM | > 100 µM | 59.2 µM | > 100 µM | 37 µM | > 100 µM | 47.9 µM | > 100 µM | 49.3 µM | > 100 µM | > 100 µM | > 100 µM | 72.7 µM | > 100 µM | 45.2 µM | > 100 µM | 29.1 µM | > 100 µM | 34.5 µM | > 100 µM
14 | C[n+]1cccc(NC(=O)c2ccc3ccc4ccc(C(=O)Nc5ccc[n+](C)c5)nc4c3n2)c1 | 24 µM | > 100 µM | 3.54 µM | > 100 µM | 4.51 µM | > 68.6 µM | 0.149 µM | 3.42 µM | 0.645 µM | 23 µM | 47.8 µM | > 100 µM | 9.02 µM | > 100 µM | 6.21 µM | > 100 µM | 1.98 µM | 4.75 µM | 2.13 µM | > 100 µM
15 | CCOC(=O)c1c(C)n([O-])c2cc(F)c(F)cc2[n+]1=O | 1.84 µM | 3.64 µM | 0.105 µM | – | 1.73 µM | 5.06 µM | 2.88 µM | 15.9 µM | 1.04 µM | 2.72 µM | 1.78 µM | 3.2 µM | 0.88 µM | 2.47 µM | 1.65 µM | 3.59 µM | 1.8 µM | 5.76 µM | 1.24 µM | 2.58 µM
16 | CS(=O)(=O)N1CCC(Nc2ncc(C(=O)c3c(F)cccc3F)c(N)n2)CC1 | > 20.7 µM | > 25 µM | 8.65 µM | > 25 µM | 15.1 µM | > 25 µM | 4.25 µM | > 25 µM | > 13.1 µM | > 25 µM | 9.78 µM | > 25 µM | 9.7 µM | > 25 µM | 4.8 µM | > 25 µM | 5.32 µM | 17.9 µM | 18.6 µM | > 25 µM
17 | Clc1nc(Cl)c2ncn(-c3ccccc3)c2n1 | 15.9 µM | 29.5 µM | 1.96 µM | 4.21 µM | 7.13 µM | 64.9 µM | 6.24 µM | 23.5 µM | 1.9 µM | 5.09 µM | 15 µM | 30.4 µM | 4.4 µM | 19 µM | 5.29 µM | 20.1 µM | 5.66 µM | 18.8 µM | 4.69 µM | 17.3 µM
18 | COc1ccc(OC)c(C2=C(c3cn(C)c4ccccc34)C(=O)NC2=O)c1 | > 25 µM | > 25 µM | > 18.8 µM | > 25 µM | > 16.9 µM | > 25 µM | > 25 µM | > 25 µM | > 25 µM | > 25 µM | > 25 µM | > 25 µM | > 25 µM | > 25 µM | > 25 µM | > 25 µM | > 25 µM | > 25 µM | > 25 µM | > 25 µM
19 | Nc1nc2ccc(CNc3ccc(C(=O)NC(CC(=O)O)C(=O)O)cc3)cc2c(=O)[nH]1 (stereo not drawn) | 4.02 µM | > 31 µM | 1.13 µM | > 100 µM | > 64.2 µM | > 100 µM | 0.593 µM | > 100 µM | 14.4 µM | > 100 µM | > 47.2 µM | > 100 µM | 1.16 µM | > 100 µM | 0.655 µM | > 100 µM | > 34.7 µM | > 100 µM | > 96 µM | > 100 µM
